Ki data for 22 molecules are collected here from US20040024024A1, “Aromatic sulfone hydroxamates and their use as protease inhibitors” (priority 2001, published 2004).

Holding throughout (assay): In vitro MMP inhibition, Ki determination (fluorogenic substrate II)
Common to all, as to assay type: biochemical

The target in experiment [1] is T1, Human recombinant MMP-1 (Homo sapiens, UniProt P03956).
T1 construct: made in house; host or cells: MMP-1-transfected HT-1080 cells (spent media)
T1 sequence (P03956 100-469): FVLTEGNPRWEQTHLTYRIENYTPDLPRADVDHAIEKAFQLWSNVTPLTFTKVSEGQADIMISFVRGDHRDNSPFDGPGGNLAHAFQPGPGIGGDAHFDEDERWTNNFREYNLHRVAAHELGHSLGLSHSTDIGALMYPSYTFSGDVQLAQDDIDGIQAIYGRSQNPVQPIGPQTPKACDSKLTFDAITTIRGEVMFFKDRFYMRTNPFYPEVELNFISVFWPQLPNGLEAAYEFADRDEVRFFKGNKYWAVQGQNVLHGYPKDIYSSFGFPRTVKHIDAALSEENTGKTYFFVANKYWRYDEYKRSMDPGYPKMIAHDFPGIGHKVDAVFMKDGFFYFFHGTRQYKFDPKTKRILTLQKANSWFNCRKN
The method, then:
(§1) Several hydroxamates and salts thereof were analyzed in in vitro assays to determine their ability to inhibit the MMP cleavage of peptide substrates. Inhibition (Ki) and IC50 constants were calculated from the assayed hydroxamate-MMP interactions.
(§2) Human recombinant MMP-1, MMP-2, MMP-9, MMP-13, and MMP-14 were used in this assay. All enzymes were prepared in Assignee's laboratories following usual laboratory procedures. Protocols for the preparation and use of these enzymes are available in the scientific literature. See, e.g., Enzyme Nomenclature (Academic Press, San Diego, Calif., 1992) (and the citations therein). See also, Frije et al., J. Biol. Chem., 26(24), 16766-73 (1994).
The MMP-1 proenzyme was purified from the spent media of MMP-1-transfected HT-1080 cells provided by Dr. Harold Welgus of Washington University (St. Louis, Mo.). The protein was purified on a zinc chelating column.
(§3) All MMPs were activated using 4-aminophenylmercuric acetate (“APMA”, Sigma Chemical, St. Louis, Mo.) or trypsin. MMP-9 also was activated using human recombinant MMP-3 (purified in Assignee's laboratory following standard cloning and purification techniques).
(§4) Two fluorogenic, methoxycoumarin-containing polypeptide substrates were used in the MMP inhibition assays:
(§5) MCA-ArgProLeuGlyLeuDpaAlaArgGluArgNH2 (II)
(§6) Here, “Dpa” is 3-(2,4-dinitrophenyl)-L-2,3-diaminopropionyl group, and “MCA” is 7-methoxycoumarin-4-yl acetyl. Substrate (I) was purchased from Baychem (Redwood City, Calif.), and substrate II was prepared Assignee's laboratory. Substrate I was used in the IC50 determination assays, while substrate II was used in the Ki determination assays. In the absence of MMP inhibitory activity, either substrate is cleaved at the Gly-Leu peptide bond. This cleavage separates the highly fluorogenic peptide from the 2,4-dinitrophenyl quencher, thus resulting in increase of fluorescent intensity.
(§7) The stock solutions of the assayed hydroxamates (or salts thereof) were prepared in 1% dimethyl sulfoxide (DMSO). These stock solutions were diluted in Buffer A (100 mM Tris-HCl, 100 mM NaCl, 10 mM CaCl2, 0.05% polyoxyethylene 23 lauryl ether, pH 7.5) to obtain solutions with different hydroxamate concentrations, i.e., assay solutions with different concentrations of the assayed MMP inhibitory compound. The experiment controls contained the same amount of Buffer A/DMSO as the assayed sample, but contained no hydroxamate (or salt thereof).
(§8) The assays from which the Ki determinations were made were performed as follows. The assayed hydroxamate samples were incubated in separate wells of untreated white polystyrene plates (Nunc Nalgene International, Rochester, N.Y.), and analyzed on a Tecan SpectraFlour Plus plate reader. The excitation wavelength was 330 nm, and the emission wavelength—420 nm. All samples (assayed hydroxamates and controls) were incubated in separate plate wells at room temperature for 1 hr in the presence of 4 μM of MMP substrate (II). In the absence of MMP inhibitory activity, substrate II was cleaved at the Gly-Leu bond resulting in an increase of relative fluorescence. Inhibition was observed as a reduced rate of this increase in relative fluorescence. The various hydroxamates were analyzed using a single low enzyme concentration with a single substrate concentration fixed at or below the Km. This protocol is a modification of method by Knight et al., FEBS Lett., 296(3), 263-266 (1992). Apparent inhibitory constants were determined by non-linear regression of reaction velocity as a function of inhibitor and enzyme concentration using Morrison's equation, as described by Kuzmic, Anal. Biochem. 286, 45-50 (2000). Modifications were made in the non-linear regression method to allow a common control reaction rate and effective enzyme concentration to be shared between all dose-response relationships on a given assay plate. […]

Experiment [2] has as its target T2, Human recombinant MMP-9 (Homo sapiens, UniProt P14780).
T2 construct: made in house; host or cells: MMP-9-transfected HT1080 cells (spent media)
The method, then:
as §1, §2
The MMP-9 proenzyme was purified by gelatin Sepharose chromatography from spent media of MMP-9-transfected HT1080 cells provided by Dr. Howard Welgus of Washington University (St. Louis, Mo.).
as §3, §4, §5, §6, §7, §8

Experiment [3] concerns the target T3, Human recombinant MMP-13 (Homo sapiens, UniProt P45452).
T3 construct: made in house; host or cells: baculovirus / insect cells
Here is the method: as §1, §2
The expressed proenzyme was first purified over a heparin agarose column, and then over a chelating zinc chloride column. The proenzyme was then activated by APMA for use in the assay. Further details on baculovirus expression systems may be found in, for example, Luckow et al., J. Virol., 67, 4566-79 (1993). See also, O'Reilly et al, Baculovirus Expression Vectors: A Laboratory Manual (W. H. Freeman and Co., New York, N.Y., 1992). See also, King et al., The Baculovirus Expression System: A Laboratory Guide (Chapman & Hall, London, England, 1992).
as §3, §4, §5, §6, §7
as §8, with “(2000).” for “(2000). Modifications were made in the non-linear regression method to allow a common control reaction rate and effective enzyme concentration to be shared between all dose-response relationships on a given assay plate.”

Where [4] appears, read: substrate (II) 4 μM, 1 hr room temperature, apparent Ki, values in parenthesis.

Values joined by “and” are separate entries in the source; they are usually repeats but may differ in a detail not shown here. Identical values can stand only once. Counter-ions that a name gives are not always drawn.

T2 sequence (P14780 107-707 limits assumed): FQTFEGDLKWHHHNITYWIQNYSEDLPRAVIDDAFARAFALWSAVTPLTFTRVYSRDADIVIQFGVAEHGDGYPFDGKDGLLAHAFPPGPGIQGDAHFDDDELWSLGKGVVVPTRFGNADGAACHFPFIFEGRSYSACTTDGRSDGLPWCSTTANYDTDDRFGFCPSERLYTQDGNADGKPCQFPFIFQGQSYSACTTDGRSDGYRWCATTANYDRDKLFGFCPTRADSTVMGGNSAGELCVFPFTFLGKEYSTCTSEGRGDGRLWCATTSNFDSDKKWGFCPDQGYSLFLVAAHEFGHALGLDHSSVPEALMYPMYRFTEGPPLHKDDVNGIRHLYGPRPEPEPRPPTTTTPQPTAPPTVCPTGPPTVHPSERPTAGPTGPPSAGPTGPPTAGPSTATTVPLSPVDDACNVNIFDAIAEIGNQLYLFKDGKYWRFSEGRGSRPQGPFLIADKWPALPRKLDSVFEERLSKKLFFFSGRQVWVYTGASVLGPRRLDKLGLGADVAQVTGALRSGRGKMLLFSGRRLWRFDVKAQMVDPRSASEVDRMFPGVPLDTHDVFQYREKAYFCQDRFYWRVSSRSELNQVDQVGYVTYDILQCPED

As to `O=C(NO)C1(S(=O)(=O)c2ccc(OCCCc3cccc(-c4ccccn4)c3)cc2)CCOCC1` [Example 148], the Ki turned out to be 8790 nM in experiment [1] (value in parenthesis), 427 nM in experiment [2] (value in parenthesis) and 1.72 nM in experiment [3] (value in parenthesis).

Turning to `O=C(NO)C1(S(=O)(=O)c2ccc(OCCc3cccc(-c4ccncc4)c3)cc2)CCOCC1` [Example 113], the figures for the Ki in experiment [1] (value in parenthesis), in experiment [2] (value in parenthesis) and in experiment [3] (value in parenthesis) were above 10000 nM, 161 nM and 0.312 nM, respectively.

For `O=C(NO)C1(S(=O)(=O)c2ccc(OCCCc3nc(-c4cccnc4)no3)cc2)CCOCC1` [Example 578], the Ki is above 10000 nM in experiment [1] (value in parentheses), 578 nM in experiment [2] (value in parentheses) and 1.72 nM in experiment [3] (value in parentheses).

For `COCCN1CCC(C(=O)NO)(S(=O)(=O)c2ccc(OCCCc3cc(-c4ccc(F)cc4F)cs3)cc2)CC1` [Example 47, 4-[(4-{3-[4-(2,4-difluorophenyl)thien-2-l]propoxy}phenyl)sulfonyl]-N-hydroxy-1-(2-methoxyethyl)piperidine-4-carboxamide Hydrochloride], the Ki in experiment [1] (setting [4]) was above 10000 nM; in experiment [2] (setting [4]), 119 nM and 309 nM; in experiment [3] (setting [4]), 0.304 nM and 0.423 nM.

Turning to `O=C(NCCOc1ccc(S(=O)(=O)C2(C(=O)NO)CCOCC2)cc1)c1cc2ccccc2[nH]1` [Example 599], the Ki in experiment [1] (value in parentheses) is above 10000 nM; in experiment [2] (value in parentheses) it was 11.3 nM; in experiment [3] (value in parentheses), 0.24 nM.

Turning to `COCCN1CCC(C(=O)NO)(S(=O)(=O)c2ccc(OCCCc3cccc(-c4ccc(F)cc4)c3)cc2)CC1` [Example 140], the Ki in experiment [1] (value in parenthesis) was above 10000 nM; in experiment [2] (value in parenthesis) it was 754 nM; in experiment [3] (value in parenthesis), 0.895 nM.

Regarding `O=C(CCCOc1ccc(S(=O)(=O)C2(C(=O)NO)CCOCC2)cc1)Nc1ccc(OC(F)(F)F)cc1` [Example 228], the values for the Ki in experiment [1] (value in parenthesis), in experiment [2] (value in parenthesis) and in experiment [3] (value in parenthesis) were 3940 nM, 247 nM and 0.324 nM, respectively.

Take `O=C(NO)C1(S(=O)(=O)c2ccc(OCCCc3cccc(-c4coc5ccccc45)c3)cc2)CCOCC1` [Example 634]: the Ki in experiment [1] (value in parentheses) was above 10000 nM; in experiment [2] (value in parentheses), 1300 nM; in experiment [3] (value in parentheses), 19.4 nM.

For `O=C(NO)C1(S(=O)(=O)c2ccc(OCCCc3ccnc(-c4ccccc4)c3)cc2)CCOCC1` [Example 197], the Ki was above 10000 nM in experiment [1] (value in parenthesis), 334 nM in experiment [2] (value in parenthesis) and 0.37 nM in experiment [3] (value in parenthesis).

As to `O=C(NO)C1(S(=O)(=O)c2ccc(OCCCc3cccc(-c4ccncc4)c3)cc2)CCOCC1` [Example 149], the results for the Ki in experiment [1] (value in parenthesis), in experiment [2] (value in parenthesis) and in experiment [3] (value in parenthesis) were above 10000 nM, 94.5 nM and 1.18 nM, respectively.

On to `CN(C(=O)CCCOc1ccc(S(=O)(=O)C2(C(=O)NO)CCOCC2)cc1)c1ccc(OC(F)(F)F)cc1` [Example 249], for which the Ki is above 10000 nM in experiment [1] (value in parenthesis), 1490 nM in experiment [2] (value in parenthesis) and 1.49 nM in experiment [3] (value in parenthesis).

For `O=C(NO)C1(S(=O)(=O)c2ccc(OCCCc3cccc(-c4ccc(OC(F)(F)F)cc4)c3)cc2)CCOCC1` [Example 147], the Ki in experiment [1] (value in parenthesis) was above 10000 nM; in experiment [2] (value in parenthesis), 7970 nM; in experiment [3] (value in parenthesis), 23.9 nM.

For the molecule `O=C(NO)C1(S(=O)(=O)c2ccc(OCCCc3cccc(Br)c3)cc2)CCOCC1` [Example 154], the Ki in experiment [1] (value in parenthesis) was above 10000 nM; in experiment [2] (value in parenthesis), 151 nM; in experiment [3] (value in parenthesis), 0.95 nM.

For the molecule `O=C(NO)C1(S(=O)(=O)c2ccc(OCCCc3cccc(-c4ccc5ccccc5c4)c3)cc2)CCOCC1` [Example 629], the Ki is above 10000 nM in experiment [1] (value in parentheses), 1300 nM in experiment [2] (value in parentheses) and 89.1 nM in experiment [3] (value in parentheses).

As to `Cc1ccc(-c2cccc(CCCOc3ccc(S(=O)(=O)C4(C(=O)NO)CCOCC4)cc3)c2)cc1C` [Example 165], the Ki in experiment [1] (value in parenthesis) was above 10000 nM; in experiment [2] (value in parenthesis) it was 9750 nM; in experiment [3] (value in parenthesis), 144 nM.

For the molecule `O=C(NO)C1(S(=O)(=O)c2ccc(OCCCc3nc(-c4ccc(OC(F)(F)F)cc4)no3)cc2)CCOCC1` [Example 31, tetrahydro-N-hydroxy-4-[[4-[3-[3[4-(trifluoromethoxy)phenyl]-1,2,4-oxadiazol-5-yl]propoxy]phenyl]sulfonyl]-2H-pyran-4-carboxamide], the values for the Ki in experiment [1] (setting [4]), in experiment [2] (setting [4]) and in experiment [3] (setting [4]) were above 10000 nM, 1600 nM and 1.5 nM, respectively.

Take `O=C(COc1ccc(S(=O)(=O)C2(C(=O)NO)CCOCC2)cc1)c1cccc(-c2ccccc2)c1` [Example 563]: the Ki in experiment [1] (value in parentheses) was above 10000 nM; in experiment [2] (value in parentheses) it was 132 nM; in experiment [3] (value in parentheses), 0.7 nM.

Consider `COCCN1CCC(C(=O)NO)(S(=O)(=O)c2ccc(OCCCc3nc(-c4ccc(OC(F)(F)F)cc4)no3)cc2)CC1` [Example 190], for which the Ki in experiment [1] (value in parenthesis) is above 10000 nM; in experiment [2] (value in parenthesis), 669 nM; in experiment [3] (value in parenthesis) it was 0.6 nM.

For the molecule `O=C(NO)C1(S(=O)(=O)c2ccc(OCCCc3cccc(-c4ccsc4)c3)cc2)CCOCC1` [Example 632], the Ki is above 10000 nM in experiment [1] (value in parentheses), 716 nM in experiment [2] (value in parentheses) and 6.54 nM in experiment [3] (value in parentheses).

As to `Cc1ccccc1-c1cccc(CCCOc2ccc(S(=O)(=O)C3(C(=O)NO)CCOCC3)cc2)c1` [Example 164], the Ki in experiment [1] (value in parenthesis) is above 10000 nM; in experiment [2] (value in parenthesis), 2720 nM; in experiment [3] (value in parenthesis), 6.85 nM.

As for `COCCN1CCC(C(=O)NO)(S(=O)(=O)c2ccc(OCCCc3nc(-c4ccccc4OC(F)(F)F)no3)cc2)CC1` [Example 152], the Ki in experiment [1] (value in parenthesis) is above 10000 nM; in experiment [2] (value in parenthesis), 44.5 nM; in experiment [3] (value in parenthesis) it was 2.66 nM.

Take `O=C(NO)C1(S(=O)(=O)c2ccc(OCCCc3cccc(-c4ccc([N+](=O)[O-])cc4)c3)cc2)CCOCC1` [Example 626]: the Ki is above 10000 nM in experiment [1] (value in parentheses), 1100 nM in experiment [2] (value in parentheses) and 7.5 nM in experiment [3] (value in parentheses).
